Test results as given in patent publication US20120172392A1, “AMINE-BASED AND AMIDE-BASED INHIBITORS OF SEMICARBAZIDE-SENSITIVE AMINE OXIDASE (SSAO) ENZYME ACTIVITY AND VAP-1 MEDIATED ADHESION USEFUL FOR TREATMENT OF DISEASES” (priority 2004, published 2012).
pIC50: −log10 of the molar value. Structures can show the parent of a compound that is named as a salt. One block for each compound: values may come before it.

Columns and labels:
SSAO [1] = molecular target: T1, SSAO (Rattus norvegicus, UniProt O08590); assay: In vitro inhibition of SSAO activity, radiolabeled benzylamine procedure (rat lung homogenate); format: biochemical
T1 construct: from tissue; host or cells: rat lung homogenate (1000 g supernatant)
T1 sequence (O08590 1-763): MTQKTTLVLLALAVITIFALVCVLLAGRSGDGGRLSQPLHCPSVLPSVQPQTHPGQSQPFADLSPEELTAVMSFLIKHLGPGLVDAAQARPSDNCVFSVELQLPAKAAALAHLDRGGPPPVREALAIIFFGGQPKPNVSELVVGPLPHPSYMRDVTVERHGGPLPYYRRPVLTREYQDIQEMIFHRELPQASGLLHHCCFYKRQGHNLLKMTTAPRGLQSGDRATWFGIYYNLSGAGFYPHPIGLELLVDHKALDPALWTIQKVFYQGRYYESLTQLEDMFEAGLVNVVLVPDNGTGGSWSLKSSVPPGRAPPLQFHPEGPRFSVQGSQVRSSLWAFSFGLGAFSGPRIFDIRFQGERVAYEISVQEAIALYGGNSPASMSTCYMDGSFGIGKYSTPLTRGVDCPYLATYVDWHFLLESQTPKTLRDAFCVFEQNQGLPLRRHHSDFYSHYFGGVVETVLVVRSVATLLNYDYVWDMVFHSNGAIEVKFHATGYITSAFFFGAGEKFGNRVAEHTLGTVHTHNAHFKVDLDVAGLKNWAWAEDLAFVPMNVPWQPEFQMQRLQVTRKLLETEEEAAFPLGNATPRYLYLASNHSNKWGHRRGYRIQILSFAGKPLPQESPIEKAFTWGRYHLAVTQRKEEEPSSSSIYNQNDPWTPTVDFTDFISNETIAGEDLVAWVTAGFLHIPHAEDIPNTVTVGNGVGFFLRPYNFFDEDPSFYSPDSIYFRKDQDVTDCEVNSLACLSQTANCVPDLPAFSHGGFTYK
Procedure: SSAO activity was also measured as described (Lizcano J M. Et al. (1998) Biochem J. 331:69). Briefly, rat lung homogenates were prepared by chopping the freshly removed tissue into small pieces and washing them thoroughly in PBS. The tissue was then homogenized 1:10 (w/v) in 10 mM potassium phosphate buffer (pH 7.8) and centrifuged at 1000 g at 4° C. for 10 minutes; the supernatant was kept frozen until ready to use. SSAO activity in 100 ul of lung homogenate was determined radiochemically using 20 uM ^14C-benzylamine as substrate. The reaction was carried out at 37° C. in a final volume of 300 ul of 50 mM potassium phosphate buffer (pH 7.2) and stopped with 100 ul of 2 M citric acid. Radioactively labeled products were extracted into; toluene/ethyl acetate (1:1, v/v) containing 0.6% (w/v) 2,5-diphenyloxdazole (PPO) before liquid scintillation counting.

C57BL/6 mice = assay: Experimental autoimmune encephalomyelitis (EAE) in mice; format: in vivo; details: for EAE development after stopping treatment: after last treatment (d19-25)
Procedure: Thirty female C57BL/6 mice were immunized subcutaneously (s,c) with myelin oligodendrocyte glycoprotein 35-55 (MOG peptide 35-55) in Complete Freund Adjuvant (CFA) on day 0, followed by i.p. injections of pertussis toxin (one pertussis toxin injection on day 0, a second pertussis toxin injection on day 2). Groups of 10 mice received either the allylamine Compound mofegiline (M1, 10 mg/kg/dose, twice daily for 18 consecutive days), methotrexate (MTX, 2.5 mg/kg/day, every other day (Mon., Weds., Fri.) till day 18) or vehicle control (twice/day for 18 consecutive days) all starting from one day after the immunization and all administered i.p. Then animals were monitored for body weight, signs of paralysis and death according to a 0-5 scale of scoring system as follows; 1=limp tail or waddling gait with tail tonicity; 2=waddling gait with limp tail (ataxia); 2.5=ataxia with partial limb paralysis; 3=full paralysis of one limb; 3.5=full paralysis of one limb with partial paralysis of second limb; 4=full paralysis of two limbs; 4.5=moribund; 5=death. Results are shown in FIG. 1A, FIG. 1B, and FIG. 1C. […] (p=0.04 by repeated measure analysis to assess the treatment effect. Proper polynomial transformation, with the spacing corresponding to the collection days, was applied to test the time effect). Statistically significant differences in diseases severity between the M1 and vehicle-treated groups, continued even after stopping compound administration and were observed until the end of the study (d25).

human MAO-A = molecular target: T2, human MAO-A (Homo sapiens, UniProt P21397); assay: Inhibition of MAO-A activity, coupled colorimetric assay; format: biochemical; details: recombinant human MAO-A, tyramine substrate
T2 construct: purchased BD Biosciences (MA, USA)
T2 sequence (P21397 1-527): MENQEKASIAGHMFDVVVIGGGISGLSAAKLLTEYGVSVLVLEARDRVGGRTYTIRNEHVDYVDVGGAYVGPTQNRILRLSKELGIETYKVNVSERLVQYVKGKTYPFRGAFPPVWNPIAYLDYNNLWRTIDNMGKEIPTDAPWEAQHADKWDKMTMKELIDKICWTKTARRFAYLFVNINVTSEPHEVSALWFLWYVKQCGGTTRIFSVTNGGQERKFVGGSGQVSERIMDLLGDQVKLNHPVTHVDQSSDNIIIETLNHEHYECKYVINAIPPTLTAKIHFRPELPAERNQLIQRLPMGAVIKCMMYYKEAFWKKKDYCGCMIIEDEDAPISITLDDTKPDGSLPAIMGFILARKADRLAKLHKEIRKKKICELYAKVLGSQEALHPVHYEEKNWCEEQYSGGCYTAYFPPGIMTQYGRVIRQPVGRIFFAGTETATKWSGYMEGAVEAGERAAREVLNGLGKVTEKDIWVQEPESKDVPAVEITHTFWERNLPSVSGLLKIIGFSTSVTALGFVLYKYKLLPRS
Procedure: (§1) The specificity of the different SSAO inhibitors was tested by determining their ability to inhibit MAO-A and MAO-B activities in vitro. Recombinant human MAO-A and human MAO-B enzymes were obtained from BD Biosciences (MA, USA). MAO activities were measured in a similar way as for SSAO except that no pre-incubation with inhibitor or substrate was performed. A pre-determined amount of inhibitor diluted in 0.2 M potassium phosphate buffer, pH 7.6, was added to each well, if required. The amount of inhibitor varied in each assay but was generally at a final concentration of between 50 nM and 1 mM. Controls lacked inhibitor. The following agents were then added to a final reaction volume of 200 μl in 0.2 M potassium phosphate buffer, pH 7.6: 0.04 mg/ml of MAO-A or 0.07 mg/ml MAO-B enzyme, 15 μl of 10 mM tyramine substrate (for MAO-A), or 15 μl 100 mM benzylamine substrate (for MAO-B), and 50 μl of freshly made chromogenic solution (as above). The plates were incubated for 60 min at 37° C. The increase in absorbance, reflecting MAO activity, was measured at 490 nm using microplate spectrophotometer (Power Wave 40, Bio-Tek Inst.). Inhibition was determined as percent inhibition compared to control after correcting for background absorbance and IC50 values, and was calculated using. GraphPad Prism software. […]

human MAO-B = molecular target: T3, human MAO-B (Homo sapiens, UniProt P27338); assay: Inhibition of MAO-B activity, coupled colorimetric assay; format: biochemical; details: recombinant human MAO-B, benzylamine substrate
T3 construct: purchased BD Biosciences (MA, USA)
T3 sequence (P27338 1-520): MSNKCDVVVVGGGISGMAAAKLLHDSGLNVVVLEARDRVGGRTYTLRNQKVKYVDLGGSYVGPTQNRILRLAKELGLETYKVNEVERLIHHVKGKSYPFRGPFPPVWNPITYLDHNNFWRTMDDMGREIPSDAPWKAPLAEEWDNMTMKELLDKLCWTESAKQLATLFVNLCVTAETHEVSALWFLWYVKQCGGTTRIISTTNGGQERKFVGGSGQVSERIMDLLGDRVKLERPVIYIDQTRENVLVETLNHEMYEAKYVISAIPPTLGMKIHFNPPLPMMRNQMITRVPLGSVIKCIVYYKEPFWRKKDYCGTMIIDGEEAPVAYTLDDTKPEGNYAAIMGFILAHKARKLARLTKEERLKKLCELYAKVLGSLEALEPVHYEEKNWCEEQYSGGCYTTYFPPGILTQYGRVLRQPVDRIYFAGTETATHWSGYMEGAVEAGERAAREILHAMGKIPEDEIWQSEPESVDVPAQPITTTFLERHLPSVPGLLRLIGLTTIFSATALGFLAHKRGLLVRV
Procedure: as §1

SSAO [2] = molecular target: T1, SSAO; assay: In vitro inhibition of SSAO activity, radiolabeled benzylamine procedure (rat lung homogenate); format: biochemical
[3] = Table I, compounds of formula X
[4] = Table II, compounds of formula III

SMILES: COc1ccc(OCC2=CCCNC2)cc1OC [compound 1397]
inhibition at 9 µM (SSAO [1]; Table II): 54%

SMILES: NCC(=O)NCc1ccc(F)cc1 [compound 1334]
pIC50 (SSAO [1]; [3]): 5.62

SMILES: C#CC(N)CCCc1ccc(OC)cc1 (stereo not shown) (as salt: hydrochloride)
melting point: 175 °C (dec.)

SMILES: NCC(=O)NCc1ccc(F)cc1 (as salt: hydrochloride) [LJP 1334, 2-amino-N-(4-fluorobenzyl)acetamide]
melting point: 114 to 115 °C

SMILES: COc1ccc(OCC2=CCCNC2)cc1 [compound 1404]
inhibition at 10 µM (SSAO [1]; Table II): 63%

SMILES: COc1ccc(CCC2=CCNC2)cc1OC [compound 1427]
inhibition at 9 µM (SSAO [1]; Table II): 50%

SMILES: NC/C(=C/F)CCc1ccc(F)cc1 [mofegiline]
EAE development after stopping treatment (C57BL/6 mice): continuously observed for at least one more week after the last treatment | disease (clinical) severity, EAE development (C57BL/6 mice; dosing period d0-18, i.p., mofegiline 10 mg/kg/dose twice daily, MTX 2.5 mg/kg/day every other day): statistically significant reduction of disease seventy | disease incidence (mice affected) (C57BL/6 mice; dosing period up to day 18, 10 mg/kg/dose i.p. twice daily): 50% | body weight (C57BL/6 mice; dosing period, 10 mg/kg/dose i.p. twice daily): prevented body weight loss

SMILES: COc1ccc(CCC2=CCNC2)cc1 [compound 1396]
pIC50 (SSAO [1]; [4]): 5.68

SMILES: COc1cccc(CCC2=CCNC2)c1 [compound 1368]
pIC50 (SSAO [1]; [4]): 6.30 | pIC50 (human MAO-A): < 3.00 | pIC50 (human MAO-B): < 3.00

SMILES: NCC(=O)NCc1cc(F)cc(C(F)(F)F)c1 [compound 1383]
pIC50 (SSAO [1]; [3]): 7.48 | pIC50 (human MAO-A): < 2.89 | pIC50 (human MAO-B): < 2.89 | melting point: 189.5 to 190 °C

SMILES: Fc1cccc(CCC2=CCNC2)c1 [compound 1367]
pIC50 (SSAO [1]; [4]): 5.62

SMILES: Fc1ccc(CCC2=CCNC2)cc1 [compound 1402]
pIC50 (SSAO [1]; [4]): 5.74

SMILES: NCC(=O)NCc1cc(F)cc(C(F)(F)F)c1 (as salt: trifluoroacetate) [LJP 1383, 2-amino-N-(3-fluoro-5-trifluoromethylbenzyl)acetamide trifluoroacetate]
melting point: 189.5 to 190.5 °C

SMILES: CN(Cc1cnc2nc(N)nc(N)c2n1)c1ccc(C(=O)N[C@@H](CCC(=O)O)C(=O)O)cc1 [MTX, methotrexate]
EAE development after stopping treatment (C57BL/6 mice): a rise in disease incidence and severity was observed right after stopping the MTX treatment

Now from value to compound:

inhibition at 10 µM (SSAO [1]; Table II): 61%
SMILES: Fc1cccc(OCC2=CCCNC2)c1 [compound 1398]

inhibition at 10 µM (SSAO [1]; Table II): 74%
SMILES: COc1cccc(OCC2=CCCNC2)c1 [compound 1401]

melting point: 170 °C (dec.)
SMILES: NC/C=C(/Cc1ccccc1)C(F)(F)F [Example 3, 3-benzyl-4,4,4-trifluoro-but-2-enylamine]

melting point: 200 °C (dec.)
SMILES: COc1ccc(CCCC(N)c2ccc(F)c(F)c2)cc1 (stereo not shown) [Example 3D, 1-(3,4-difluorophenyl)-4-(4-methoxyphenyl)-butylamine]

pIC50 (SSAO [1]; [3]): 6.15
SMILES: NCC(=O)NCc1cccnc1 [compound 1356]

melting point: 87 to 88 °C
SMILES: NCC(=O)NCc1cccnc1 [LJP 1356, 2-amino-N-pyridin-3-ylmethylacetamide]

inhibition at 10 µM (SSAO [1]; Table II): 56%
SMILES: Fc1ccc(OCC2=CCCNC2)cc1 [compound 1395]

melting point: 143 to 144 °C
SMILES: C=CC(N)CCCc1ccccc1 (stereo not shown) [Example 3E, 1-(3-phenyl-propyl)-allylamine]

reversibility of inhibition of SSAO enzyme activity (SSAO [2]): irreversible
SMILES: COc1cccc(CCC2=CCNC2)c1.Cl [LJP 1368, 3-[2-(3-methoxyphenyl)ethyl]-3-pyrroline hydrochloride]
